In PubChem BioAssay AID1985 (Southern Research Specialized Biocontainment Screening …, 2009):
Where “and” joins values, the source holds several entries; their conditions need not be identical. Equal entries are not always repeated.

Tested on: S. Typhi PhoP-promoter GFP reporter, fluorescence, 4 h
Experiment: modified counter assay using GFP fluorescence, PhoP regulon inhibitor project, dose response (AID 1985)

Nc1nnc(-c2cccc(Cl)c2Cl)c(N)n1 and Nc1nc(Nc2ccc(Cl)cc2)nc2ccccc12 are the same in IC50: 33 µM for the first, 33 µM for the second.

Going from CC[n+]1c(/C=C/N(C)c2ccccc2)n(-c2ccccc2)c2ccc(-c3nc4ccccc4s3)cc21 to c1ccc(Nc2ccnc(Nc3ccccc3)n2)cc1, the IC50 rises from 8.97 µM to 67.2 µM (7.5-fold).

Cc1cc(Cl)c(OCCCNCc2ccccc2)c(Br)c1 and OC(CNCCc1ccc(Cl)cc1Cl)COc1ccccc1 (stereo not given) are within 1.5-fold of each other in IC50: 81.7 µM for the first, 71.7 µM for the second.

Compared with OC(CNCCc1ccc(Cl)cc1)COc1cc(Cl)ccc1Cl (stereo not given), Oc1cc(Cl)ccc1Oc1ccc(Cl)cc1Cl is 99-fold lower in IC50: 36.6 µM for the first, 0.369 µM for the second.

C[C@H]1O[C@@H](n2cc(F)c(=O)[nH]c2=O)[C@H](O)[C@@H]1O and Nc1ncn([C@@H]2O[C@H](CO)[C@@H](O)[C@H]2O)c(=O)n1 are within 1.5-fold of each other in IC50: 13.2 µM for the first, 11.2 µM for the second.

O=C1C2=C(Nc3ccccc3SC2c2ccco2)c2ccccc21 (stereo not given) and O=C(N/N=C/c1ccc(O)c(O)c1)C1c2ccccc2Oc2ccccc21 are within 1.5-fold of each other in IC50: 120 µM for the first, 106 µM for the second.

Going from OCCCNc1c2ccccc2nc2ccccc12 to O=C(/C=C/c1ccccc1Cl)c1ccccc(=O)c1O, the IC50 falls from 136 µM to 37.9 µM (3.6-fold).

Going from O=C(O)c1cn(C2CC2)c2cc(N3CCN(S(=O)(=O)c4ccc5c(c4)OCCO5)CC3)c(F)cc2c1=O to CN1CCN(c2cc3c(cc2F)c(=O)c(C(=O)O)cn3CCF)CC1, the IC50 falls from 28.2 µM to 0.444 µM (64-fold). The second is the more potent here.

O=C(CCN1CCN(c2ccccc2)CC1)c1ccc(Br)cc1 and O=C(NNC(=S)NC(=O)c1ccccc1)c1ccc(O)cc1 are within 1.5-fold of each other in IC50: 98.6 µM for the first, 71.1 µM for the second.

First: C=CC1=C(C(=O)O)N2C(=O)[C@@H](NC(=O)/C(=N\O)c3csc(N)n3)[C@H]2SC1 (stereo in doubt)
Second: CO[C@@]1(NC(=O)C2SC(=C(C(N)=O)C(=O)O)S2)C(=O)N2C(C(=O)O)=C(CSc3nnnn3C)CS[C@@H]21 (stereo not given in full)
The IC50 of the first is 2.6-fold higher: 34.6 µM for the first, 13.1 µM for the second.

Cc1c(N=Cc2cc(Br)cc(Br)c2O)cccc1C(=O)O and O=C(Nc1cccc(N=Cc2cc(Cl)cc(Br)c2O)c1)c1ccco1 are within 1.5-fold of each other in IC50: 77.5 µM for the first, 94.3 µM for the second.

COc1c(N2CCN[C@H](C)C2)c(F)cc2c(=O)c(C(=O)O)cn(C3CC3)c12 and C[C@H]1COc2c(N3CCN(C)CC3)c(F)cc3c(=O)c(C(=O)O)cn1c23 cannot be ordered by IC50: under 0.23 µM for the first, under 0.23 µM for the second.

First: CN1CCc2nc(SCC(=O)Nc3cccc(F)c3)c(C#N)c(-c3cccs3)c2C1
Second: CCCc1nnc(NC(=O)c2cn(CC)c3cc(N4CCN(C)CC4)c(F)cc3c2=O)s1
The IC50 of the first is 3.3-fold higher: 136 µM for the first, 41.2 µM for the second.

Cc1ccc(NC(=O)CS(=O)CC(=O)Nc2ccccc2-c2ccc(C)o2)cc1 (stereo not given) and Cc1ccc(C(=O)N/C(=C\c2ccc(-c3ccc(Br)cc3)o2)C(=O)NCCCN(C)C)cc1 are within 1.5-fold of each other in IC50: 66.8 µM for the first, 66.3 µM for the second.

First: Cc1ccccc1C(=O)N/N=C/c1ccc([N+](=O)[O-])s1
Second: COc1cccc(/C=N/NC(=O)c2ccoc2C)c1O
The IC50 of the first is 3-fold lower: 29 µM for the first, 88.1 µM for the second. The first is the more potent here.

Compared with CCC(=O)N1CCN(c2cc3c(cc2F)c(=O)c(C(=O)O)cn3CC)CC1, CCCNC(=O)c1cn(CC)c2cc(N3CCN(C)CC3)c(F)cc2c1=O is 4.5-fold lower in IC50: 126 µM for the first, 28 µM for the second. The second is the more potent here.

Compared with C#CCOCCOCCOCCNc1nc(N2CCN(C(=O)[C@H]([C@@H](C)CC)n3cc([C@@H](N)Cc4ccc(O)cc4)nn3)CC2)nc(N2CCN(C(=O)[C@H](Cc3cc4ccccc4[nH]3)n3cc([C@@H](N)CC(C)C)nn3)CC2)n1, CCOC(=O)Cn1c(=N)n(CCOc2ccc3ccccc3c2)c2ccccc21 is 1.9-fold lower in IC50: 150 µM for the first, 79.1 µM for the second.

Going from O=C(CCc1ccccc1)NNC(=O)c1ccccn1 to CCCCOc1ccc(C(=O)NNC(=S)NC(=O)CC)cc1, the IC50 falls from 101 µM to 38.9 µM (2.6-fold).

First: O=C1CC(NC(=O)C(F)(F)F)=NN1c1ccccc1
Second: O=C(Cn1cnc2ccccc21)Nc1ccc(SC(F)F)cc1
The IC50 of the first is 1.8-fold higher: 143 µM for the first, 78 µM for the second. The second is the more potent here.

First: CCN(CC)c1ccc(/C=N/NC(=O)c2ccc3nc[nH]c3c2)c(O)c1
Second: N/C(=N\N=C/c1ccc(F)cc1)N/N=C\c1ccc(F)cc1
The IC50 of the first is 1.6-fold lower: 46.6 µM for the first, 75.1 µM for the second. The first is the more potent here.

First: CC(C)(C)c1ccc(OCCCCCCN2CCNCC2)cc1
Second: CCCCCCCCCCOC(=O)C[N+](C)(C)CC1CCCCC1O (stereo not given)
The IC50 of the first is 2-fold higher: 127 µM for the first, 65 µM for the second.

Compared with O=[N+]([O-])c1cc(F)c2cccnc2c1O, Nc1nnnn1/N=C/c1cc([N+](=O)[O-])ccc1O is 19-fold higher in IC50: 4.83 µM for the first, 91.5 µM for the second.

Going from C(=N\Nc1ccccn1)/c1cccnc1 to COc1ccc(NC(=O)c2cc(Br)c(Br)s2)cn1, the IC50 falls from 37.5 µM to 23.3 µM (1.6-fold). The second is the more potent here.

Compared with CO[C@H]1C=CO[C@@]2(C)Oc3c(C)c(O)c4c(O)c(c5c(c4c3C2=O)NC2(CCN(CC(C)C)CC2)N=5)=NC(=O)C(C)=CC=C[C@H](C)[C@H](O)[C@@H](C)[C@@H](O)[C@@H](C)[C@H](OC(C)=O)[C@@H]1C, COc1ccccc1C(C[N+](=O)[O-])c1c(N)n(C)c(=O)n(C)c1=O (stereo not given) is 19-fold higher in IC50: 4.08 µM for the first, 79.1 µM for the second. The first is the more potent here.

Going from O=C(Oc1ccc[nH]c1=O)c1cc([N+](=O)[O-])cc([N+](=O)[O-])c1 to CCc1cccc2c(C(=O)COC(=O)c3ccc([N+](=O)[O-])s3)c[nH]c12, the IC50 falls from 46 µM to 10.4 µM (4.4-fold). The second is the more potent here.

O=C(CCC(=O)Nc1ccc(Cl)cc1Cl)N/N=C/c1ccc([N+](=O)[O-])o1 and O=C(N/N=C\C=C\c1ccc([N+](=O)[O-])o1)c1cccs1 are within 1.5-fold of each other in IC50: 33.9 µM for the first, 27.8 µM for the second.

Work on COc1cccc(NC2=NC3(CCCCC3)N=C(N)N2)c1 yielded an IC50 of 147 µM.

For c1cnc2c(c1)ccc1cccnc12, the IC50 was 33.7 µM and 131 µM.
With NC(=NCCCCCCN=C(N)/N=C(\N)Nc1ccc(Cl)cc1)/N=C(\N)Nc1ccc(Cl)cc1 the IC50 was 3.89 µM and 3.25 µM and 5.35 µM.
